Measured values: patent publication US12281102B2, “Inhibitors of APOL1 and methods of using same” (Vertex Pharmaceuticals Incorporated, priority 2020, dated 2025)

Legend:
G1 APOL1 = target: T1, G1 APOL1 (Homo sapiens, UniProt O14791, I384M/S342G); test: Acute APOL1 Thallium Assay with inducible stable clones of HEK 293 cells; type: cell-based; details: HEK 293 T-Rex inducible stable clone expressing G1 APOL1; read-out: Thallium Assay (IC50)
T1 construct: expressed in transfected cells
T1 sequence (O14791 28-398 S342G/I384M): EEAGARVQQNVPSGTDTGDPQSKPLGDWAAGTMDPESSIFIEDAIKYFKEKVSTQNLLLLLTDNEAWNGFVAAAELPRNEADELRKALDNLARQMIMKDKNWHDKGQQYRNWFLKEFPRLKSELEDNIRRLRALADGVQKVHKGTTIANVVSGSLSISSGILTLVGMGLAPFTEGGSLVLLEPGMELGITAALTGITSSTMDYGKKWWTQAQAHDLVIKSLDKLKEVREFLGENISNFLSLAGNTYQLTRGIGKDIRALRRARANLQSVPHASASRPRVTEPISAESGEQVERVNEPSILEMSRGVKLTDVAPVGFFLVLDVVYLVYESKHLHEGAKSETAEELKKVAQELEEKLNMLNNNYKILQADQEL
In short: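 A tetracycline-inducible HEK293 T-Rex clone (G1 DC3.25) expressing G1 APOL1 was plated at 26,000 cells/well, with tetracycline added at plating to induce expression. Cells were loaded with an AM-ester thallium-sensitive dye and stimulated with Tl+. Pore activity was read as the FLIPR Tetra fluorescence increase from Tl+ influx.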

APOL1 G1 Protein = target: T2, APOL1 G1 Protein (Homo sapiens, UniProt O14791, I384M/S342G); test: Trypanosoma brucei brucei lysis assay using APOL1 recombinant protein (AlamarBlue viability); type: cell-based; details: Trypanosoma brucei brucei lysis with recombinant APOL1 protein
T2 sequence (O14791 28-398 S342G/I384M): T1 sequence (O14791 28-398 S342G/I384M)

Compound | IC50 (G1 APOL1) [nM] | IC50 (APOL1 G1 Protein) [nM]
CC(=O)N1CCC(Cc2c(-c3ccc(F)cc3)[nH]c3c(F)cc(F)cc23)C1 (stereo not shown) [Compound 444, 1-(3-((5,7-difluoro-2-(4-fluorophenyl)-1H-indol-3-yl)methyl)pyrrolidin-1-yl)ethan-1-one] | > 1000 | 250 to 1000
CC(=O)NC1CC(c2c(-c3ccc(F)cc3)[nH]c3c(F)cc(F)cc23)C1 (stereo not shown) [Compound 17, N-[3-[5,7-difluoro-2-(4-fluorophenyl)-1H-indol-3-yl]cyclobutyl]acetamide] | 250 to 1000 | 250 to 1000
COCC(=O)NC1CC(c2c(-c3ccc(F)cc3)[nH]c3c(F)cc(F)cc23)C1 (stereo not shown) [Compound 18, N-[3-[5,7-difluoro-2-(4-fluorophenyl)-1H-indol-3-yl]cyclobutyl]-2-methoxy-acetamide] | 250 to 1000 | 250 to 1000
N[C@H]1CC[C@H](c2c(-c3ccc(F)cc3)[nH]c3c(F)cc(F)cc32)CC1 (single isomer, unassigned) [Compound 434, Trans-4-[5,7-difluoro-2-(4-fluorophenyl)-1H-indol-3-yl]cyclohexanamine] | 250 to 1000 | < 250
NCC1(O)CC(c2c(-c3ccc(F)cc3)[nH]c3c(F)cc(F)cc23)C1 (stereo not shown) [Compound 427, 1-(aminomethyl)-3-[5,7-difluoro-2-(4-fluorophenyl)-1H-indol-3-yl]cyclobutanol] | 250 to 1000 | < 250
CC1(CN)CC(c2c(-c3ccc(F)cc3)[nH]c3c(F)cc(F)cc23)C1 (stereo not shown) [Compound 426, [3-[5,7-difluoro-2-(4-fluorophenyl)-1H-indol-3-yl]-1-methyl-cyclobutyl]methanamine] | 250 to 1000 | < 250
NC1CC(c2c(-c3ccc(F)cc3)[nH]c3c(F)cccc23)C1 (stereo not shown) [Compound 6, 3-[7-fluoro-2-(4-fluorophenyl)-1H-indol-3-yl]cyclobutanamine] | 250 to 1000 | < 250
O=C(CO)NCC1CC(c2c(-c3ccc(F)cc3)[nH]c3c(F)cc(F)cc23)C1 (stereo not shown) [Compound 214] | 250 to 1000 | 250 to 1000
CC(=O)OC1CC(c2c(-c3ccc(F)cc3)[nH]c3c(F)cc(F)cc23)C1 (mixture of isomers) [Compound 173, [3-[5,7-difluoro-2-(4-fluorophenyl)-1H-indol-3-yl]cyclobutyl]acetate] | 250 to 1000 | < 250
NC1CCC(c2c(-c3ccc(F)cc3)[nH]c3c(F)cc(F)cc23)CC1 (stereo not shown) [Compound 433, 4-[5,7-difluoro-2-(4-fluorophenyl)-1H-indol-3-yl]cyclohexanamine] | < 250 | < 250
O=C(C1CCO1)N1CCC(Cc2c(-c3ccc(F)cc3)[nH]c3c(F)cc(F)cc23)C1 (stereo not shown) [Compound 443, [3-[[5,7-difluoro-2-(4-fluorophenyl)-1H-indol-3-yl]methyl]pyrrolidin-1-yl]-(oxetan-2-yl)methanone] | 250 to 1000 | 250 to 1000
NCC1CC(c2c(-c3ccc(OC(F)(F)F)cc3)[nH]c3c(F)cc(F)cc23)C1 (stereo not shown) [Compound 180] | < 250 | < 250
NC[C@H]1C[C@H](c2c(-c3ccc(F)cc3)[nH]c3c(F)cc(F)cc32)C1 [Compound 188, ((1r,3r)-3-(5,7-difluoro-2-(4-fluorophenyl)-1H-indol-3-yl)cyclobutyl)methanamine] | < 250 | < 250
COCCNCC1CC(c2c(-c3ccc(F)cc3)[nH]c3c(F)cc(F)cc23)C1 (stereo not shown) [Compound 375] | < 250 | < 250
CC(C)(O)CC(=O)NC1CC(c2c(-c3ccc(F)cc3)[nH]c3c(F)cc(F)cc23)C1 (stereo not shown) [Compound 16, N-[3-[5,7-difluoro-2-(4-fluorophenyl)-1H-indol-3-yl]cyclobutyl]-3-hydroxy-3-methyl-butanamide] | 250 to 1000 | 250 to 1000
OCCNCC1CC(c2c(-c3ccc(F)cc3)[nH]c3c(F)cc(F)cc23)C1 (stereo not shown) [Compound 374, 2-[[3-[5,7-difluoro-2-(4-fluorophenyl)-1H-indol-3-yl]cyclobutyl]methylamino]ethanol] | < 250 | < 250
NCC1CC(c2c(-c3ccc(OC(F)F)cc3)[nH]c3c(F)cc(F)cc23)C1 (stereo not shown) [Compound 182] | < 250 | < 250

The next lines start with results.

IC50 (G1 APOL1) [nM] | Compound | IC50 (APOL1 G1 Protein) [nM]
< 250 | NCC1CC(c2c(-c3ccc(F)cc3)[nH]c3c(F)cc(F)cc23)C1 (mixture of isomers) [Compound 186, (3-(5,7-difluoro-2-(4-fluorophenyl)-1H-indol-3-yl)cyclobutyl)methanamine] | < 250
< 250 | Cc1cccc(-c2[nH]c3c(F)cc(F)cc3c2C2CC(CN)C2)c1 (stereo not shown) [Compound 181] | < 250
< 250 | Cc1ccc(-c2[nH]c3c(F)cc(F)cc3c2C2CC(CN)C2)cc1 (stereo not shown) [Compound 184] | < 250
< 250 | Cc1ccc(-c2[nH]c3c(F)cc(F)cc3c2C2CC(N)C2)cc1 (mixture of isomers) [Compound 4, 3-[5,7-difluoro-2-(p-tolyl)-1H-indol-3-yl]cyclobutanamine] | < 250
< 250 | COc1ccc(-c2[nH]c3c(F)cc(F)cc3c2C2CC(CN)C2)cc1 (stereo not shown) [Compound 183] | < 250
< 250 | NC[C@H]1C[C@@H](c2c(-c3ccc(F)cc3)[nH]c3c(F)cc(F)cc32)C1 [Compound 187, ((1s,3s)-3-(5,7-difluoro-2-(4-fluorophenyl)-1H-indol-3-yl)cyclobutyl)methanamine] | < 250
< 250 | O=C(CO)NC1CC(c2c(-c3ccc(F)cc3)[nH]c3c(F)cc(F)cc23)C1 (stereo not shown) [Compound 15, N-[3-[5,7-difluoro-2-(4-fluorophenyl)-1H-indol-3-yl]cyclobutyl]-2-hydroxy-acetamide] | 250 to 1000
< 250 | NCC1CC(c2c(-c3ccc(Cl)cc3)[nH]c3c(F)cc(F)cc23)C1 (mixture of isomers) [Compound 176, (3-(2-(4-chlorophenyl)-5,7-difluoro-1H-indol-3-yl)cyclobutyl)methanamine] | < 250
< 250 | OCC1CC(c2c(-c3ccc(F)cc3)[nH]c3c(F)cc(F)cc23)C1 (stereo not shown) [Compound 424, [3-[5,7-difluoro-2-(4-fluorophenyl)-1H-indol-3-yl]cyclobutyl]methanol] | < 250
< 250 | O[C@H]1C[C@H](c2c(-c3ccc(F)cc3)[nH]c3c(F)cc(F)cc32)C1 [Compound 174, (1r,3r)-3-(5,7-difluoro-2-(4-fluorophenyl)-1H-indol-3-yl)cyclobutan-1-ol] | < 250
< 250 | N#Cc1ccc(-c2[nH]c3c(F)cc(F)cc3c2C2CC(CN)C2)cc1 (stereo not shown) [Compound 185] | < 250
< 250 | NC1CC(c2c(-c3ccc(Cl)cc3)[nH]c3c(F)cc(F)cc23)C1 (mixture of isomers) [Compound 10, 3-[2-(4-chlorophenyl)-5,7-difluoro-1H-indol-3-yl]cyclobutanamine] | < 250
